Results reported in patent US20100004159A1, “SUBSTITUTED IMIDAZOLONE DERIVATIVES, PREPARATIONS AND USES” (GENFIT, priority 2006, published 2010).

Key:
[1] = system: PPARs target genes; assay: Expression of PPAR target genes by quantitative RT-PCR in db/db mouse tissue; format: in vivo; details: db/db mice, 50 mpk for 28 days
Method: Samples of hepatic tissue and adipose epididymal tissue were taken and frozen immediately in liquid nitrogen then conserved at −80° C. for later analysis.
Total RNA was extracted from liver fragments by using a NucleoSpine 96 RNA kit (Macherey Nagel, Hoerdt, France) according to the manufacturer's instructions.
The total RNA of the adipose tissue was extracted from tissue fragments with a method using guanidine thiocyanate. The tissues were briefly homogenized in 5 mL of a lysis buffer (guanidine thiocyanate 4M, EDTA pH8 10 mM, Tris HCl pH 7.5 50 mM and b-mercaptoethanol 1.4%) using polytron. To separate the layers, 500 μL of sodium acetate 2M pH4, 5 mL of phenol, and 2 mL of a mixture of chloroform/isoamylic alcohol (49:1) were added. After centrifugation, the aqueous layer was collected and the RNA was precipitated in the presence of isopropanol. After a second precipitation, the RNA was washed with ethanol 70°, dried, then suspended again in an volume of water free of RNase. A step of purification/DNase I treatment of the RNA was then carried out by using NucleoSpin® 96 RNA kit (Macherey-Nagel) according to the manufacturer's instructions. 1 μg of total RNA (quantified by using the Ribogreen RNA quantification kit (Molecular Probes)) was then reverse-transcribed into cDNA by means of a 1 hour reaction at 37° C. in a total volume of 20 μl containing a buffer 1× (Sigma), 1.5 mM of DTT, 0.18 mM, of dNTPs (Promega), 200 ng of pdN6 (Amersham), 30 U of RNase inhibitor (Sigma), and 1 μl of MMLV-RT (Sigma). The quantitative PCR experiments were carried out using the MyiQ Single-Color Real-Time PCR Detection System (Biorad, Marnes-la-Coquette, France) and were performed using the iQ SYBR Green Supermix kit according to the manufacturer's recommendations, in 96-well plates in 5 μl of a diluted reverse transcription solution at a hybridization temperature of 55° C. Primer pairs specific to the studied genes were used:
The quantity of emitted fluorescence is directly proportional to the quantity of cDNA present at the beginning of the reaction and amplified during the PCR. For each target studied, a range of solutions is performed with successive dilutions of a mixture made up of a few μl of different reverse-transcription solutions. The relative levels of expression of each target are thus determined by using efficiency curves obtained with the points relative to the range.
The expression levels of the genes of interest were then normalized, in the hepatic tissue with respect to the level expression of reference gene 36B4 (whose specific primers are: sense primer: 5′-[…]-3′ (SEQ ID NO: 15) and antisense primer: 5′-[…]-3′ (SEQ ID NO: 16)), and in the adipose tissue with respect to reference gene 18S (whose specific primers are: sense primer: 5′-[…]-3′ (SEQ ID NO: 17) and antisense primer: 5′-[…]-3′ (SEQ ID NO: 18)). The induction factor was then calculated for each sample. The higher the induction factor is, the more the compound promotes gene expression. The final result is represented as the average of the induction values within each experimental group.

[2] = system: Wistar rats under repeated administrations of angiotensin II; assay: Arterial pressure of Wistar rats under repeated administration of angiotensin II; format: in vivo, rat; details: angiotensin II boluses 50, 100 and 200 ng/kg; single intravenous dose 20 mpk
Method: This experimental procedure is intended to show the anti-hypertensive effects of the compounds according to the invention in Wistar rats in which hypertension is induced either by continuous intravenous administration of angiotensin II (example 21.1) or by repeated intravenous administration of angiotensin II (example 21.2). The animals were treated with the compounds according to the invention intravenously at increasing doses. To validate the study, the control animals were administered, in the same conditions, either the vehicle itself or a reference.
Wistar rats (males—200-250 g—5-6 weeks old—CERJ) were anesthetized for surgery using pentobarbital (50 mg/kg). A catheter was placed in the right jugular vein for angiotensin II administration. A catheter was placed in the left jugular vein the administration of the compounds according to the invention. Boluses of angiotensin II were performed at predetermined intervals by the experimenter using a manual syringe.
The arterial pressure of the animal was measured for a few minutes at basal conditions; then three successive intravenous administrations of angiotensin II (50, 100, and 200 ng/kg) were performed. At every bolus of angiotensin II, the average arterial pressure, expressed in mm of Hg, increased in a very temporary way. […]

CCCCC1=NC2(CCCC2)C(=O)N1Cc1ccc(-c2cccc(OC(C)(C)C(=O)O)c2)cc1 [Compound 1, 2-butyl-1-[(3′-((1-carboxy-1,1-dimethylmethyl)oxy)biphenyl-4-yl)methyl]-4-spirocyclopentyl-1H-imidazol-5(4H)-one]
hepatic expression of the gene coding for CPT1 b [1]: significant increase | hepatic expression of the gene coding for PDK-4 [1]: significant increase | expression of the gene coding for ApoCIII ([1]; liver): significant decrease | expression of the gene coding for FBb ([1]; liver): significant decrease | difference of arterial pressure: antagonist effect on angiotensin II [2]: antagonist effect on angiotensin II
